According to patent US9963496B2, “Stable glucagon analogues and use for treatment of hypoglycaemia” (Novo Nordisk A/S, priority 2014, dated 2018):
*1 amine or outer side, *2 acyl side, *3 side chain or, on linkers, in order; H or OH if unused. Where a SMILES comes first, the peptide text is derived from it. Side-chain parts run from the residue outwards. [ ]: non-standard residue; d: D form. The star is where a group is joined. γGlu = O=C(O)[C@H](CCC(=O)[*:2])N[*:1]; Desaminohistidyl = O=C(CCc1c[nH]cn1)*; Aib = CC(C)(N)C(=O)O

Assays:
[1] = molecular target: T1, human glucagon receptor (Homo sapiens, UniProt P47871); assay: Assay (I)(b): glucagon receptor activation, CRE luciferase reporter gene assay in BHK cells; format: cell-based; conditions: BHK cells expressing human glucagon receptor and CRE luciferase, 3 h incubation; read-out: EC50 hGlucagonR
T1 construct: expressed in transfected cells; host or cells: BHK cells, clone BHK hGCGR A3*25; isolated membranes
Outline: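 BHK570 cells stably expressing the human glucagon receptor and CRE-luciferase, 5×10 EE3 cells/well in DMEM with 2% ovalbumin and 0.2% Pluronic F-68. Compounds at final 1×10 EE-6 to 1×10 EE-13 M, 3 h at 37° C. Luminescence read; EC50 by four-parameter fit.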

[2] = molecular target: T1, human glucagon receptor; assay: Assay (II)(b): glucagon receptor binding, 125I-glucagon displacement on isolated membranes (SPA); conditions: displacement of 125I-glucagon, membranes of BHK cells with human glucagon receptor, 2 h at 25° C.; read-out: IC50 hGlucagonR
Protocol: (b) Glucagon Receptor Binding
The purpose of this assay was to test the in vitro receptor binding activity of the glucagon derivatives of the invention. The receptor binding activity is a measure of affinity of a derivative for the human glucagon receptor.
The receptor binding of each compound to the human glucagon receptor was measured in a displacement binding assay. In this type of assay a labelled ligand (in this case 125I-glucagon) is bound to the receptor. Each derivative is added in a series of concentrations to isolated membranes containing the human glucagon receptor and displacement of the labelled ligand is monitored. The receptor binding is reported as the concentration at which half of the labelled ligand is displaced from the receptor, the IC50 value.
HME buffer consisted of 25 mM HEPES, 2 mM MgCl2 and 1 mM EDTA, and pH was adjusted to 7.4. Binding buffer consisted of 50 mM HEPES supplemented with 5 mM MgCl2, 1 mM CaCl2, 0.02% Tween 20 and 0.1% Ovalbumin, and pH was adjusted to 7.4.
The cells used in this assay (clone BHK hGCGR A3*25) were BHK cells stable transfected with an expression plasmid containing the cDNA encoding the human glucagon receptor.
The cells were grown at 5% CO2 in DMEM, 10% fetal calf serum, 1% Pen/Strep (Penicillin/Streptomycin) and 1.0 mg/mL of the selection marker G418. To make a membrane preparation the cells were grown to approximately 80% confluence. The cells were washed twice in phosphate-buffered saline and harvested. The cells were pelleted using a brief centrifugation and the cell pellet was kept on ice. The cells were lysed by adding approx. 5 mL HME buffer, mix by pipetting and snap freeze in liquid nitrogen. The cell lysate was quickly thawed and HME buffer added to 10 mL. The cell pellet was homogenised with an ULTRA-THURRAX dispersing instrument for 20-30 seconds. The homogenate was centrifuged at 20,000×G, 4° C. for 10 minutes. The pellet was resuspended (homogenised) in 1-2 mL HME buffer. The protein concentration was determined. The membranes were aliquoted and snap frozen in liquid nitrogen and stored at minus 80° C.
• 1. For the receptor binding assay 50 μl of the assay buffer was added to each well of an assay plate. • 2. Test compounds were serially diluted to give the following concentrations: 8×10 EE-7 M, 8×10 EE-8 M, 8×10 EE-9 M, 8×10 EE-10 M, 8×10 EE-11 M, 8×10 EE-12 M and 8×10 EE-13 M. Twenty-five μl were added to appropriate wells in the assay plate. • 3. Cell membrane aliquots were thawed and diluted to their working concentration. Fifty μl were added to each well in the assay plate. • 4. WGA SPA beads were suspended in assay buffer at 20 mg/mL. The suspension was diluted to 10 mg/mL in assay buffer just prior to addition to the assay plate. Fifty μl were added to each well in the assay plate. • 5. The incubation was started by adding 25 μl of 480 pM solution of [125I]-glucagon to each well of the assay plate. A 25 μl aliquot was reserved for measuring total counts/well. • 6. The assay plate was incubated for 2 h at 25° C. • 7. The assay plate was centrifuged for 10 min at 1500 rpm. • 8. The assay plate was read in a Packard TopCount NXT instrument. Calculations
The data from the TopCount instrument were transferred to GraphPad Prism software. The software averaged the values for the replicates and performed a non-linear regression.

T1 sequence (P47871 26-477): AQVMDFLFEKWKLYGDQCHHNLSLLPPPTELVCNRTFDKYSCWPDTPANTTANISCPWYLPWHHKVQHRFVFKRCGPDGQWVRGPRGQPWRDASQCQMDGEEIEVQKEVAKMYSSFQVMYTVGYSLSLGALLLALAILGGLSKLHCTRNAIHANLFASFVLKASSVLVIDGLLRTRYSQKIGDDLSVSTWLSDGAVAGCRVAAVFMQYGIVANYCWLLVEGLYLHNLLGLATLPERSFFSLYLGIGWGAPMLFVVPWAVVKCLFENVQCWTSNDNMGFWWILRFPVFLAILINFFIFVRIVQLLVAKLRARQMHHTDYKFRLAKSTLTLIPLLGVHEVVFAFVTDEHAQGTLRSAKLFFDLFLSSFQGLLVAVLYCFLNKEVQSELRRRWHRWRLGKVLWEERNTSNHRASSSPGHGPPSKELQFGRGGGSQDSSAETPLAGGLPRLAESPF

Row | Compound | EC50 [1] [nM] | IC50 [2] [nM]
1 | CC(=O)N[C@@H](CCC(=O)N[C@@H](CCC(=O)N[C@@H](CCC(=O)N[C@@H](CCC(=O)NCCCC[C@H](NC(=O)[C@H](CC(C)C)NC(=O)[C@H](CC(C)C)NC(=O)[C@H](Cc1c[nH]c2ccccc12)NC(=O)[C@H](C)NC(=O)[C@@H](NC(=O)[C@H](Cc1ccccc1)NC(=O)[C@H](CC(=O)O)NC(=O)[C@H](CCC(N)=O)NC(=O)[C@H](C)NC(=O)[C@H](CCCNC(=N)N)NC(=O)[C@H](CCCNC(=N)N)NC(=O)[C@H](CO)NC(=O)[C@H](CCC(=O)O)NC(=O)[C@H](CC(C)C)NC(=O)[C@H](Cc1ccc(O)cc1)NC(=O)[C@H](CCCCN)NC(=O)[C@H](CO)NC(=O)[C@H](Cc1ccc(O)cc1)NC(=O)[C@H](CC(=O)O)NC(=O)[C@H](CO)NC(=O)[C@@H](NC(=O)[C@H](Cc1ccccc1)NC(=O)[C@@H](NC(=O)CNC(=O)[C@H](Cc1c[nH]cn1)NC(=O)C(C)(C)NC(=O)CCc1c[nH]cn1)[C@@H](C)O)[C@@H](C)O)C(C)C)C(=O)N[C@H](C(=O)O)[C@@H](C)O)C(=O)O)C(=O)O)C(=O)O)C(=O)O [Example 4, N^ϵ28-[(4S)-4-[[(4S)-4-[[(4S)-4-[[(4S)-4-acetamido-4-carboxybutanoyl]amino]-4-carboxybutanoyl]amino]-4-carboxybutanoyl]amino]-4-carboxybutanoyl]-[Imp1, Aib2, His3, Glu15, Ala24, Leu27, Lys28]-Glucagon] (Desaminohistidyl-[Aib]HGTFTSDYSKYLESRRAQDFVAWLLK([γGlu-γGlu-γGlu-γGlu-Ac])T-OH) | 0.005 | 1.8
2 | CC(=O)N[C@@H](CCC(=O)N[C@@H](CCC(=O)N[C@@H](CCC(=O)N[C@@H](CCC(=O)NCCCC[C@H](NC(=O)[C@@H](NC(=O)[C@H](Cc1ccccc1)NC(=O)[C@H](CC(=O)O)NC(=O)[C@H](CCC(N)=O)NC(=O)[C@H](C)NC(=O)[C@H](CCCNC(=N)N)NC(=O)[C@H](CCCNC(=N)N)NC(=O)[C@H](CC(C)C)NC(=O)[C@H](CC(=O)O)NC(=O)[C@H](CC(C)C)NC(=O)[C@H](Cc1ccc(O)cc1)NC(=O)[C@H](CCCCN)NC(=O)[C@H](CO)NC(=O)[C@H](Cc1ccc(O)cc1)NC(=O)[C@H](CC(=O)O)NC(=O)[C@H](CO)NC(=O)[C@@H](NC(=O)[C@H](Cc1ccccc1)NC(=O)[C@@H](NC(=O)CNC(=O)[C@H](Cc1c[nH]cn1)NC(=O)C(C)(C)NC(=O)CCc1c[nH]cn1)[C@@H](C)O)[C@@H](C)O)C(C)C)C(=O)N[C@@H](Cc1c[nH]c2ccccc12)C(=O)N[C@@H](CC(C)C)C(=O)N[C@@H](CC(C)C)C(=O)N[C@@H](CO)C(=O)N[C@H](C(=O)O)[C@@H](C)O)C(=O)O)C(=O)O)C(=O)O)C(=O)O [Example 1, N^ϵ24-[(4S)-4-[[(4S)-4-[[(4S)-4-[[(4S)-4-acetamido-4-carboxybutanoyl]amino]-4-carboxybutanoyl]amino]-4-carboxybutanoyl]amino]-4-carboxybutanoyl]-[Imp1, Aib2, His3, Leu16, Lys24, Leu27, Ser28]-Glucagon] (Desaminohistidyl-[Aib]HGTFTSDYSKYLDLRRAQDFVK([γGlu-γGlu-γGlu-γGlu-Ac])WLLST-OH) | 0.001 | 0.2
3 | CC(=O)N[C@@H](CCC(=O)N[C@@H](CCC(=O)N[C@@H](CCC(=O)N[C@@H](CCC(=O)NCCCC[C@H](NC(=O)[C@@H](NC(=O)[C@H](Cc1ccccc1)NC(=O)[C@H](CCC(=O)O)NC(=O)[C@H](CCC(N)=O)NC(=O)[C@H](C)NC(=O)[C@H](CCCNC(=N)N)NC(=O)[C@H](CCCNC(=N)N)NC(=O)[C@H](CC(C)C)NC(=O)[C@H](CC(=O)O)NC(=O)[C@H](CC(C)C)NC(=O)[C@H](Cc1ccc(O)cc1)NC(=O)[C@H](CCCCN)NC(=O)[C@H](CO)NC(=O)[C@H](Cc1ccc(O)cc1)NC(=O)[C@H](CC(=O)O)NC(=O)[C@H](CO)NC(=O)[C@@H](NC(=O)[C@H](Cc1ccccc1)NC(=O)[C@@H](NC(=O)CNC(=O)[C@H](Cc1c[nH]cn1)NC(=O)[C@H](CO)NC(=O)CCc1c[nH]cn1)[C@@H](C)O)[C@@H](C)O)C(C)C)C(=O)N[C@@H](Cc1c[nH]c2ccccc12)C(=O)N[C@@H](CC(C)C)C(=O)N[C@@H](CC(C)C)C(=O)N[C@@H](CO)C(=O)N[C@H](C(=O)O)[C@@H](C)O)C(=O)O)C(=O)O)C(=O)O)C(=O)O [Example 8, N^ϵ24-[(4S)-4-[[(4S)-4-[[(4S)-4-[[(4S)-4-acetamido-4-carboxybutanoyl]amino]-4-carboxybutanoyl]amino]-4-carboxybutanoyl]amino]-4-carboxybutanoyl]-[Imp1, His3, Leu16, Glu21, Lys24, Leu27, Ser28]-Glucagon] (Desaminohistidyl-SHGTFTSDYSKYLDLRRAQEFVK([γGlu-γGlu-γGlu-γGlu-Ac])WLLST-OH) | 0.001 | 0.2
4 | CC(=O)N[C@@H](CCC(=O)N[C@@H](CCC(=O)N[C@@H](CCC(=O)N[C@@H](CCC(=O)NCCCC[C@H](NC(=O)[C@@H](NC(=O)[C@H](Cc1ccccc1)NC(=O)[C@H](CC(=O)O)NC(=O)[C@H](CCC(N)=O)NC(=O)[C@H](C)NC(=O)[C@H](CCCNC(=N)N)NC(=O)[C@H](CCCNC(=N)N)NC(=O)[C@@H](NC(=O)[C@H](CC(=O)O)NC(=O)[C@H](CC(C)C)NC(=O)[C@H](Cc1ccc(O)cc1)NC(=O)[C@H](CCCCN)NC(=O)[C@H](CO)NC(=O)[C@H](Cc1ccc(O)cc1)NC(=O)[C@H](CC(=O)O)NC(=O)[C@H](CO)NC(=O)[C@@H](NC(=O)[C@H](Cc1ccccc1)NC(=O)[C@@H](NC(=O)CNC(=O)[C@H](Cc1c[nH]cn1)NC(=O)C(C)(C)NC(=O)CCc1c[nH]cn1)[C@@H](C)O)[C@@H](C)O)C(C)C)C(C)C)C(=O)N[C@@H](Cc1c[nH]c2ccccc12)C(=O)N[C@@H](CC(C)C)C(=O)N[C@@H](CC(C)C)C(=O)N[C@@H](CO)C(=O)N[C@H](C(=O)O)[C@@H](C)O)C(=O)O)C(=O)O)C(=O)O)C(=O)O [Example 10, N^ϵ24-[(4S)-4-[[(4S)-4-[[(4S)-4-[[(4S)-4-acetamido-4-carboxybutanoyl]amino]-4-carboxybutanoyl]amino]-4-carboxybutanoyl]amino]-4-carboxybutanoyl]-[Imp1, Aib2, His3, Val16, Lys24, Leu27, Ser28]-Glucagon] (Desaminohistidyl-[Aib]HGTFTSDYSKYLDVRRAQDFVK([γGlu-γGlu-γGlu-γGlu-Ac])WLLST-OH) | 0.002 | 0.5
